Test results as given in patent publication US10046050B2, “Targeting immunotherapy for amyloidosis” (UNIVERSITY OF TENNESSEE RESEARCH FOUNDATION, priority 2014, dated 2018).
Read-outs that look alike come from different tables or passages of the source.

Legend:
mAb 7D8 = test: Surface plasmon resonance of mAb 7D8 binding to amino-coupled peptopes; conditions: 7D8 2.7 nM; for Kd: read-out: KD
Experimental: Analyses were performed using a BIAcore X surface plasmon resonance instrument (GE Healthcare) and all reagents were obtained from GE Healthcare. For chip preparation, the peptides were attached to CM-5 chips using the amino-coupling method supplied with the instrument software. Briefly, chips were activated by injection (35 μL) of a mixture of ECD/NHS at a flow rate of 5 μL/min. Immediately thereafter, 35 μL of the test peptide (peptope p75, p76, p77, or p78), diluted to 1 μg/mL in NaOAc buffer, pH 5.5, was injected. After peptide coupling, the remaining active groups on the chip were blocked by injection of 35 μL of 1 M ethanolamine-HCl pH 8.5. Test peptides p75, p76, p77, or p78 were coupled to the Fc-1 channel and peptide p5, which served as a control, was coupled to the Fc-2 channel. A sensorgram was initiated on each chip in HBS-EP buffer at 10 μL per min. An initial regeneration step consisting of a 20 μL injection of pH 2.5 glycine buffer was performed and the baseline allowed to equilibrate. Antibody 7D8 was diluted to a stock of 10 μg/mL in HBS-EP buffer which was further diluted to a 0.4 μg/mL (˜2.7 nM) working dilution immediately before injection. The antibody was injected (50 μL) and the data collected for 200 seconds using a delayed wash cycle. The chip was subjected to a regeneration step before the next test injection. Binding data were extracted from the sensorgram, aligned, and analyzed using the BIAevaluation software by fitting to the following binding models (i) Langmuir, (ii) Langmuir with mass transfer, and (iii) Interaction of a bivalent analyte [A+B→AB; AB+B→AB2].

[1] = biological target: T1, human transthyretin (TTR) amyloid-laden tissue (Homo sapiens, UniProt P02766); test: Pre-targeting immunohistochemistry on ATTR-laden tissue sections; format: binding
T1 construct: from tissue
Experimental: The pre-targeting efficacy of peptide p5+14 in conjunction with mAb clones 4, 5, 12, or 13 was further evaluated using human ATTR-laden formalin-fixed paraffin embedded tissue sections. More particularly, six micrometer-thick sections, cut from formalin-fixed, paraffin embedded human transthyretin (TTR) amyloid-laden tissue, were subjected to antigen retrieval by incubation with CitraPlus (BioGenex, San Ramon, Calif.) for 30 min at 90° C. Peptide p5+14 was added to the tissue at ˜3 μg/mL (30× molar excess over mAb) and incubated overnight at 4° C. Unbound reagent was removed by washing in PBST for 30 min. Tissues (with or without p5+14) were immunostained with a 3 μg/mL solution of biotinylated anti-peptide mAb (clones 4, 5, 12, or 13). Slides were developed by addition of streptavidin-HRP (Vectastain Elite ABC kit, Vector Labs) followed by 3,3′-diaminobezidene (Vector Labs).
By way of positive control, a biotinylated-p5+14 peptide (without mAb) was used to directly stain TTR amyloid in this tissue (red arrows, below), as described above.
To confirm the presence and distribution of amyloid in the tissue a consecutive slide was stained with Congo red. Briefly, tissues were incubated in Congo red solution (0.8% w/v Congo red, 0.2% KOH w/v in 80% ethanol) for 1 h at RT. Sections were then washed in water and counterstained by suspending in Mayer's hematoxylin for 2 min. […]

[2] = system: synthetic and naturally-occurring amyloid samples; test: Pull down assay of ^125I-labeled peptides; format: binding
Experimental: To evaluate the binding of p66 and p5+14 to synthetic and naturally-occurring amyloid, peptides p66 or p5+14 were radiolabeled with iodine-125 (I-125, ^125I) using oxidation with chloramine T (1 mg/ml in water freshly made. Free 1-125 was removed from the reaction mixture by size exclusion chromatography using a Sephadex G-25 solid phase and a 0.1% (w/v) gelatin in PBS mobile phase. Fractions of ˜250 μl were collected and the radioactivity in each measured using a gamma counter (Packard Cobra II auto-gamma counter). Peptide fractions with peak radioactivity were pooled and used for the “pull-down” assays.
For the pull down assay, ^125I-labeled peptide binding to murine: (m) AA and wild type (WT) liver homogenates (25 μl); rVλ6Wil (AL), Aβ(1-40) and islet amyloid polypeptide (IAPP) synthetic fibrils (25 μg), and; transthyretin-associated (ATTR), ALκ4-Cab and ALλ1-Ship human amyloid extracts (50 μg). The ^125I-peptides were prepared in PBST (0.15 M NaCl) or PBST with 1 M NaCl. Ten μl (˜5 ng, ˜100,000 counts per min [cpm]) of the ^125I-peptide solution was added to each test sample in a 200 μl volume. The reaction mixtures were rotated for 1 h at RT, then centrifuged twice at 16,000×g for 10 min. After each step the supernatants were removed and collected in test tubes. The pellets, obtained following the second spin were resuspended in PBST. The radioactivity in both the supernatant and pellet samples were measured using a Packard Cobra II auto-gamma counter. The bound peptide, expressed as % total was calculated according to: Bound peptide (% total)=(Pellet cpm)/(Pellet cpm+Supernatant cpm)

AA amyloid = biological target: T2, AA amyloid (Mus musculus, UniProt P05367); test: In vivo pre-targeting of ^125I-11-1F4 to systemic AA amyloid; set-up: species or system mice; conditions: 24 h post injection of 11-1F4 mAb; peptide given 24 h before mAb
T2 construct: from tissue; host or cells: organs of living H2-L^d-huIL-6 Tg Balb/c mice after AEF injection
T2 sequence (P05367 20-94 limits assumed): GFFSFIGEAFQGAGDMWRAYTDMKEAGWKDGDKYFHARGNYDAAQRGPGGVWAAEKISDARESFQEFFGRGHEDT
Experimental: Systemic visceral AA amyloidosis was induced in H2-L^d-huIL-6 Tg Balb/c transgenic mice that constitutively express the human interleukin-6 transgene, by iv injection of 10 μg of purified, splenic AA amyloid (amyloid enhancing factor; AEF) in 100 μL of sterile phosphate-buffered saline (PBS). Peptide p66 pre-targeting of ^125I-11-1F4 was evaluated in mice at 3-4 wk post AEF injection when amyloid load was modest.
Three cohorts of 3 mice, each received ˜400 μg of unlabeled peptide p66, and a second group of 3 cohorts were given peptide p5+14 as a control. Twenty-four hours after the peptide injection all mice were administered ˜150 μCi (˜20 μg) of ^125I-11-1F4 IV in the lateral tail vein. One group of p66 mice (n=3) and one group of p5+14 control mice (n=3) were euthanized at 24, 48 and 72 h post injection of 11-1F4 mAb and the organs harvested at necropsy for fixation, followed by microautoradiographic and immunohistochemical analyses.
For autoradiography, 6-μm-thick sections were cut from formalin-fixed, paraffin-embedded blocks, containing tissues from mice that had received […]. The sections were placed on Plus microscope slides (Fisher Scientific), dipped in NTB-2 emulsion (Eastman Kodak), stored in the dark, and developed after a 4 day exposure. Each section was counterstained with hematoxylin and eosin.
Formalin-fixed paraffin embedded tissue sections, from mice treated with p66 peptope or peptide p5+14 were subjected to antigen retrieval using citrate buffer (pH 6; Dako) 30 min at 90° C. The tissue was then blocked with hydrogen peroxide, casein, and avidin and biotin, per manufacturer's instructions. The biotinylated peptide-reactive mAb (clone 12-3 [described above]) was then added (1.6 μg/mL in PBS) an the samples incubated for 2 h at RT, O/N at 4° C., followed by another 2 h period at RT. […]
The presence of macrophages was detected by staining with mAb Iba-1 (1:8000 diln) followed by addition of biotinylated rabbit anti-mouse secondary reagent (Vector Rabbit Elite kit). […]

[3] = system: mAb clones 4, 5, 12, and 13; test: ELISA capture of negative control biotinylated peptides by plate-adsorbed mAb clones; format: binding, murine; conditions: 100 ng/well
Experimental: More particularly, 96-well ELISA microplates were coated overnight with the indicated mAbs (500 ng/well), the wells were blocked with PBS/BSA solution before addition of biotinylated p5+14 peptide (100 ng/well). Biotinylated peptides, p5R and p31G (aka p5G) were used as a negative control. Following a wash step, detection of captured peptide was achieved by addition of europium-conjugated streptavidin as described above.

Substance | Rmax (RU) (mAb 7D8; Bivalent Analyte) | ka1 (mAb 7D8; Bivalent Analyte) [M⁻¹ s⁻¹] | ka2 (1/RUs) (mAb 7D8; Bivalent Analyte) | kd1 (mAb 7D8; Bivalent Analyte) [s⁻¹] | kd2 (mAb 7D8; Bivalent Analyte) [s⁻¹] | KA (mAb 7D8; Langmuir with Mass Transfer) [M⁻¹] | Req (RU) (mAb 7D8; Langmuir with Mass Transfer) | Rmax (RU) (mAb 7D8; Langmuir with Mass Transfer) | ka (mAb 7D8; Langmuir with Mass Transfer) [M⁻¹ s⁻¹] | kd (mAb 7D8; Langmuir with Mass Transfer) [s⁻¹] | kobs (mAb 7D8; Langmuir with Mass Transfer) [s⁻¹] | kt (RU/(M*s)) (mAb 7D8; Langmuir with Mass Transfer) | Kd (mAb 7D8; Langmuir with Mass Transfer) [nM] | KA (mAb 7D8; Langmuir) [M⁻¹] | Req (RU) (mAb 7D8; Langmuir) | Rmax (RU) (mAb 7D8; Langmuir) | ka (mAb 7D8; Langmuir) [M⁻¹ s⁻¹] | kd (mAb 7D8; Langmuir) [s⁻¹] | kobs (mAb 7D8; Langmuir) [s⁻¹] | Kd (mAb 7D8; Langmuir) [nM] | also measured
KAQKAQAKQAKQAQKAQKAQAKQAKQGPGHEDT [p77, KAQKAQAKQAKQAQKAQKAQAKQAKQGPGHEDT] | 5.43E+03 | 44600 | 3.76E−05 1/RUs | 0.0295 | 0.0224 | 3e+08 | 192 | 429 | 1.96e+08 | 0.653 | 1.18 | 4.57E+08 RU/(M*s) | 3.33 | 1.04e+07 | 223 | 8.16E+03 | 51900 | 0.00498 | 0.00512 | 96 | –
KAQKAQAKQAKQAQKAQKAQAKQAKQVTVHEDT [p78, KAQKAQAKQAKQAQKAQKAQAKQAKQVTVHEDT] | 9.16E+03 | 63700 | 1.10E−07 1/RUs | 0.00972 | 2.63e-05 | 6.85e+08 | 326 | 502 | 1.29e+07 | 0.0188 | 0.0536 | 1.65E+09 RU/(M*s) | 1.46 | 4.05e+08 | 331 | 633 | 2.42e+06 | 0.00598 | 0.0125 | 2.47 | –
KAQKAQAKQAKQAQKAQKAQAKQAKQAQKAQKAQAKQAKQ (KAQKAQAKQAKQAQKAQKAQAKQAKQAQKAQKAQAKQAKQ; Peptide p5+14) | – | – | – | – | – | – | – | – | – | – | – | – | – | – | – | – | – | – | – | – | staining of ATTR amyloid by directly biotinylated peptide (no mAb) ([1]; compared with Congo red): co-localizes with amyloid deposits; staining of ATTR amyloid, non-biotinylated peptide pre-targeting then biotinylated anti-peptide mAb ([1]; peptide ˜3 μg/mL, mAb clones 4, 5, 12, or 13 at 3 μg/mL): the amyloid was readily visualized; binding of ^125I-peptide to amyloid samples ([2]; 0.15 M NaCl): bound equally well; binding of ^125I-peptide to amyloid samples ([2]; 1.0 M NaCl): bound equally well; co-localization of ^125I-11-1F4 with AA amyloid after peptide pre-targeting (AA amyloid): little evidence of ^125I-11-1F4 co-localized with the amyloid
KAQKAQAKQAKQAQKAQKAQAKQAKQGGGHEDT [p76, KAQKAQAKQAKQAQKAQKAQAKQAKQGGGHEDT] | 861 | 609000 | 2.38E−03 1/RUs | 0.0736 | 0.0774 | 6.33e+08 | 191 | 302 | 8.96e+06 | 0.0137 | 0.0372 | 1.43E+09 RU/(M*s) | 1.58 | 4.43e+08 | 191 | 351 | 2.95e+06 | 0.00667 | 0.0146 | 2.26 | –
RAQRAQARQARQAQRAQRAQARQARQ (RAQRAQARQARQAQRAQRAQARQARQ; Peptide p5R) | – | – | – | – | – | – | – | – | – | – | – | – | – | – | – | – | – | – | – | – | capture of biotinylated peptide by adsorbed mAb clones [3]: not captured
GAQGAQAGQAGQAQGAQGAQAGQAGQ (GAQGAQAGQAGQAQGAQGAQAGQAGQ; Peptide p5G) | – | – | – | – | – | – | – | – | – | – | – | – | – | – | – | – | – | – | – | – | capture of biotinylated peptide by adsorbed mAb clones [3]: not captured
